What is called IC50 is the midpoint of a concentration-inhibition curve.

We go through 4 compounds from patent publication US9839618B2, “Compositions and methods relating to proliferative diseases” (The Penn State Research Foundation, priority 2010, dated 2017).

The test system of assay [1] is Prostate (PC-3) cancer cell line. The experiment in a line: MTS assay viability IC50, PC-3. The conditions noted are these: Table 5. Type of assay: cell-based. The method, then: (§1) Dehydroabietylamine, its N-substituted derivatives and the corresponding dihydroabietylamine and its N-substituted derivatives are tested for their capability to inhibit cell growth of cancer cell lines, including melanoma (UACC 903, 1205Lu), breast (MCF-7), fibrosarcoma (HT-1080), colon (Caco-2), and prostate (PC-3) cancer cell lines. Viability and IC50 of normal human fibroblasts and cell lines from melanoma and other malignancies following treatment with all the agents are measured using the MTS assay (Promega, Madison, Wis.). Human fibroblast FF2441 cells, metastatic melanoma cell lines 1205 Lu and UACC 903 as well as cancer cell lines representing sarcoma (HT-1080), prostate (PC-3, LNCaP), breast (MCF-7) and lung (A-549) are maintained in DMEM (Invitrogen, Carlsbad, Calif.) supplemented with 10% FBS (Hyclone, Logan, Utah) in a 5% CO2 atmosphere, humidified 37° C. incubator. 5×10^3 cells per well in 100 μL of media are plated and grown in a 96-well plate for 48 to 72 h and treated with either DMSO vehicle control or 0.62 to 40 μmol/L for 24, 48 or 72 h. IC50 values for each compound in […] for respective cell lines are measured from three independent experiments using GraphPad Prism version 4.01 (GraphPad Software, La Jolla, Calif.). FIG. 52 is a graph showing IC50 values for leelamine and compounds 4a, 4b and 5a in treated fibroblasts (FF2441) compared to melanoma cells. Selectivity ratio here is defined as ratio of activity against fibroblasts compared to activity against melanoma cells. Leelamine is relatively selective with a ratio of >6 and >4 for UACC903 and 1205Lu melanoma cells. The selectivity ratio of compound 4a is ˜4 and ˜3 for UACC903 and 1205Lu and for compound 4b is ˜4 for both cell lines. The selectivity ratio of compound 5a is ˜4 for UACC903 and >2 for 1205Lu cells.
(In general: Formazan colour is commonly taken as a measure of viable cells.)

Assay [2] concerns Breast (MCF-7) cancer cell line. The assay is described as follows: MTS assay viability IC50, MCF-7. It is filed as cell-based. As to conditions: Homo sapiens, MCF7; Table 5. The method, then:
as §1

The next assay relates to STAT signaling pathway. The experiment in a line: Western blot, STAT pathway. The conditions noted are these: for STAT3 pathway (pSTAT3): Example 8, 24 hours, actives 3-5 μmol/L, inactives 30-50 μmol/L. Type of assay: cell-based, human. The procedure:
(§2) For Western blot analysis, cell lysates are harvested by addition of RIPA lysis buffers containing 25 mM Tris.HCl pH 7.6, 150 mM NaCl, 1% NP-40, 1% sodium deoxycholate, 0.1% SDS, 10 mM EDTA, 1 mM sodium orthovanadate, 0.1 mM sodium molybdate, 1 mM phenylmethylsulfonyl fluoride, 20 μg/mL aprotinin, and 5 μg/mL leupeptin. The cell lysates are harvested and processed as described in Madhunapantula, S. V. et al., Cancer Res, 2007, 67:3626-36. Treatment conditions: 1-1.5×10^6 melanoma cells are plated in 100 mm culture dishes, 48 h later, treated with leelamine (3-6 μmol/L) for 3 to 24 hours. Protein lysates are collected for Western blotting. The blots are probed with antibodies according to each supplier's recommendations: antibodies to total Akt, phospho-Akt (Ser473), total PRAS40, phospho-PRAS40 (Thr246), total CREB, phospho-CREB (Ser133), phospho-p70 S6 kinase (Thr389), total Erk1/2, phospho-Erk1/2 (Thr202/Tyr 204), total CDK2, phospho-CDK2 (Thr160), phospho-Rb (Ser807/811), total Stat, phospho-Stat1 (Tyr701), Phospho-Stat-2(Tyr690), Phospho-Stat3(Ser727), phospho-Stat3(Tyr705) and cleaved PARP from Cell Signaling Technology (Danvers, Mass.); total PRAS40 from Invitrogen (Carlsbad, Calif.); cyclin D1, Bcl-2, α-enolase and secondary antibodies conjugated with horseradish peroxidase from Santa Cruz Biotechnology (Santa Cruz, Calif.). Immunoblots are developed using the enhanced chemiluminescence (ECL) detection system (Thermo Fisher Scientific, Rockford, Ill.). Intensity of protein bands is quantified using ImageJ software.
(§3) For Western blot analysis, 1×10^6 melanoma cells are plated in 100 mm culture dishes, 48 hours later, treated with empty liposomes or Nanolipolee-007 (3-6 μmol/L) for 3 to 24 hours. Protein lysates collected for Western blotting. The cell lysates are harvested in an RIPA lysis buffer containing protease and phosphatases inhibitors (Pierce Biotechnology, Rockford, Ill.). Blots are probed with antibodies according to each supplier's recommendations: antibodies to total Akt, phospho-Akt (Ser473), total PRAS40, phospho-PRAS40 (Thr246), total Bad, pBad (Ser 112) total Erk1/2, phospho-Erk1/2 (Thr202/Tyr 204), total CDK2, phospho-CDK2 (Thr160), phospho-Rb (Ser807/811), total Stat, phospho-Stat3 (Tyr705), caspase-3 and cleaved PARP from Cell Signaling Technology (Danvers, Mass.); total PRAS40 from Invitrogen (Carlsbad, Calif.); cyclin D1, α-enolase and secondary antibodies conjugated with horseradish peroxidase from Santa Cruz Biotechnology (Santa Cruz, Calif.). Immunoblots are developed using the enhanced chemiluminescence (ECL) detection system (Thermo Fisher Scientific, Rockford, Ill.). Intensity of protein bands is quantified using ImageJ software.
(§4) Cell lysates are harvested by addition of RIPA lysis buffers containing 25 mM Tris*HCl pH 7.6, 150 mM NaCl, 1% NP-40, 1% sodium deoxycholate, 0.1% SDS, 10 mM EDTA, 1 mM sodium orthovanadate, 0.1 mM sodium molybdate, 1 mM phenylmethylsulfonyl fluoride, 20 μg/mL aprotinin, and 5 μg/mL leupeptin. The cell lysates are harvested and processed as described. […] Protein lysates collected for Western blotting. […] Intensity of protein bands is quantified using ImageJ software. […]
(In general: In western blotting, separated proteins are transferred to a membrane and probed.)

In the next assay the test system is MAPK signaling pathway. The assay is described as follows: Western blot, MAPK pathway. As to conditions: for MAPK pathway (pERK1/2, pCDK2): Example 8, 24 hours, actives 3-5 μmol/L, inactives 30-50 μmol/L. It is filed as cell-based, human. The method, then:
as §2, §3, §4

Assay [3] deals with Fibrosarcoma (HT-1080) cancer cell line. The assay is described as follows: MTS assay viability IC50, HT-1080. Type of assay: cell-based. As to conditions: Homo sapiens, Table 5, read-out: IC50 Fibro Sarcoma (HT-1080). The method, then: as §1
Assay [4] deals with Prostate (LnCap) cancer cell line. The assay is described as follows: MTS assay viability IC50, LnCap. It is filed as cell-based. As to conditions: Homo sapiens, Table 5. The method, then: as §1
[5] abbreviates: 3 to 6 μmol/L for 3 to 24 hours, UACC 903 and 1205 Lu.

Entries after “also recorded” stand apart in the source; their conditions may differ.

For the compound `CC(C)C1=CC2=CCC3[C@](C)(CCC[C@@]3(C)C(=O)O)C2CC1` (stereo partly drawn) [Abietic acid, (1R,4aR)-1,4a-dimethyl-7-(propan-2-yl)-1,2,3,4,4a,4b,5,6,10,10a-decahydrophenanthrene-1-carboxylic acid, reference compound], the IC50 in assay [1], in assay [2], in assay [3] and in assay [4] was more than 100 µM throughout. Moreover, in the assay on STAT signaling pathway, the “STAT3 pathway (pSTAT3)” value is “unable to affect”. In the assay with MAPK signaling pathway, the “MAPK pathway (pERK1/2, pCDK2)” value was “unable to affect”.

For `CC(C)C1=CC2=CCC3[C@](C)(CN)CCC[C@]3(C)C2CC1` (stereo partly drawn) [Compound 4a, {[(1R,4aR)-1,4a-dimethyl-7-(propan-2-yl)-1,2,3,4,4a,4b,5,6,10,10a-decahydrophenanthren-1-yl]methyl}amine], the IC50 in assay [1] turned out to be 9.73 ± 1.04 µM; in assay [2] it was 8.69 ± 1.81 µM; in assay [3], 6.29 ± 1.1 µM; in assay [4] it was 14.8 ± 1.99 µM. For the same compound, the “STAT3 pathway (pSTAT3)” value with STAT signaling pathway is recorded as “decrease pSTAT3 expression at all doses”. Moreover, in the assay with MAPK signaling pathway, the “MAPK pathway (pERK1/2, pCDK2)” value is “Dose dependent reduction of pERK1/2 and pCDK2”.

In the case of `CC(C)c1ccc2c(c1)CCC1[C@](C)(CNC(=O)C(F)(F)F)CCC[C@]21C` (stereo partly drawn) [Compound 5a, N-{[(1R,4aS)-1,4a-dimethyl-7-(propan-2-yl)-1,2,3,4,4a,9,10,10a-octahydrophenanthren-1-yl]methyl}-2,2,2-trifluoroacetamide], the concentration for half-maximal inhibition (IC50) was determined as 4.66 ± 0.55 µM in assay [1], 4.39 ± 0.71 µM in assay [2], 3.73 ± 0.54 µM in assay [3] and 8.63 ± 0.97 µM in assay [4]. For the same compound, the “STAT3 pathway (pSTAT3)” value in the assay on STAT signaling pathway is “decrease pSTAT3 expression at all doses”. The “MAPK pathway (pERK1/2, pCDK2)” value in the assay on MAPK signaling pathway is “Dose dependent reduction of pERK1/2 and pCDK2”.

As for `CC(C)c1ccc2c(c1)CCC1[C@](C)(CN)CCC[C@]21C` (stereo partly drawn) [Leelamine, [(1R,4aS)-1,4a-dimethyl-7-(propan-2-yl)-1,2,3,4,4a,9,10,10a-octahydrophenanthren-1-yl]methanamine], the half-maximal inhibitory concentration (IC50) stood at 4.85 ± 1.09 µM in assay [1], 6.42 ± 0.52 µM in assay [2], 3.75 ± 0.54 µM in assay [3] and 10.9 ± 2.11 µM in assay [4]. In addition, the STAT pathway signaling result with STAT signaling pathway (setting [5]) is listed as “decrease activity”. For the same compound, the “STAT3 pathway (pSTAT3)” value in the assay with STAT signaling pathway is “completely blocked pSTAT3 expression; also recorded: decrease pSTAT3 expression at all doses”. Also, the “MAP kinase pathway signaling” value in the assay on MAPK signaling pathway (setting [5]) is recorded as “decrease activity”. For the same compound, in the assay on MAPK signaling pathway, the “MAPK pathway (pERK1/2, pCDK2)” value is “blocks activation of ERK1/2; also recorded: Dose dependent reduction of pERK1/2 and pCDK2”.
